Values after ≈ are worked out from the molar mass of the structure shown.
Columns and labels:
Format in all cases: functional
[1] = test system: Saccharomyces; experiment: Antifungal activity against Saccharomyces sake KF26 at 27 degC by paper disk assay
[2] = test system: Mucor racemosus; experiment: Antifungal activity against Mucor racemosus IFO 5403 at 27 degC by paper disk assay
[3] = test system: Candida albicans; experiment: Antifungal activity against Candida albicans KF1 at 27 degC by paper disk assay
[4] = test system: Micrococcus luteus; experiment: Antibacterial activity against Micrococcus luteus ATCC 9341 after 24 hrs at 37 degC by paper disk assay; conditions: ATCC 9341, 24 h
[5] = test system: Aspergillus niger; experiment: Antifungal activity against Aspergillus niger ATCC 6275 at 27 degC by paper disk assay
[6] = test system: Bacillus subtilis; experiment: Antibacterial activity against Bacillus subtilis PCI 219 after 24 hrs at 37 degC by paper disk assay; conditions: PCI 219, 24 h

MIC [1]: 81.3 µg/mL (≈ 276 µM) | MIC [2]: 10.2 µg/mL (≈ 34.7 µM) | MIC [3]: 81.3 µg/mL (≈ 276 µM) | MIC [4]: 112 µg/mL (≈ 381 µM) | MIC [5]: 81.3 µg/mL (≈ 276 µM) | MIC [6]: 5.1 µg/mL (≈ 17.3 µM)
Compound: COC1=C(OC)C(=O)c2c(O)c3c(c(O)c2C1=O)OCO3 [TRICROZARIN A]

Source: ChEMBL document CHEMBL1150719, “Constituents of Tritonia crocosmaeflora, I. Tricrozarin A, a novel antimicrobial naphthazarin derivative” (1987)
